Values quoted from earlier work as cited in patent US4657924A, “Nafazatrom as a lipoxygenase inhibitor” (priority 1983, dated 1987).

What was measured:
cyclooxygenase = details: stated disadvantage; cited from earlier work
[1] = test system: synthesis of prostaglandins from arachidonic acid; details: comparison with nafazatrom; cited from earlier work

Row | SMILES | activity of known lipoxygenase inhibitors as cyclooxygenase inhibitors (cyclooxygenase) | action on the synthesis of prostaglandins from arachidonic acid [1]
1 | CCCCCC#CCC#CCC#CCC#CCCCC(=O)O [5,8,11,14-eicosatetrainoic acid] | either at the same time active as cyclooxygenase inhibitors or active only in very high concentrations | –
2 | COc1ccc2c(c1)c(CC(=O)O)c(C)n2C(=O)c1ccc(Cl)cc1 [indomethacin] | – | overall inhibiting action
3 | CC(Cc1ccc(O)c(O)c1)C(C)Cc1ccc(O)c(O)c1 (stereo not shown) [nordihydroguaiaretic acid] | either at the same time active as cyclooxygenase inhibitors or active only in very high concentrations | –
4 | O=C1CCN(c2ccccc2)N1 [phenidone] | either at the same time active as cyclooxygenase inhibitors or active only in very high concentrations | –
